Tested on: A2780 cells
Experiment: chemotherapy-dependent RNA degradation (RNA integrity number, Agilent 2100 Bioanalyzer) in cultured A2780 cells
Format: cell-based
Settings: for concentration at which reductions in RNA integrity are induced: range tested 2.5-40 μM; for change in RNA integrity at low concentrations: low (micromolar) concentrations; for effect on RNA integrity (in words): up to 40 μM
Procedure: Before starting RNA isolation, an appropriate volume of buffer RLT is prepared by adding β-mercaptoethanol to buffer RLT in a ratio of 10 μl for every 1 ml of solution. RLT buffer is stable for a month after addition of β-ME. […] This precipitate was redissolved by warming at 30° C. and then placing the solution at room temperature. Aliquots of 0.5 ml RLT buffer (with β-ME) were placed in Eppendorf microfuge tubes prior to RNA isolation procedures. […] The resulting lysate is passed at least 5 times through a 20-gauge needle (0.9 mm diameter) fitted to an RNase-free syringe to shear associated genomic DNA. The sheared lysate is then transferred to a microcentrifuge tube and centrifuged at maximum speed for 3 minutes, with transfer of the supernatant to a new tube. One volume of 70% ethanol (500 μl) is added to the homogenized lysate, and the sample mixed well by pipetting. If some volume of the lysate is lost during homogenization, the volume of ethanol is adjusted accordingly. […] Up to 700 μl of the sample is then applied to an RNeasy mini column placed in a 2 ml collection tube, including any precipitate that may have formed. […] Any remaining lysate is applied to the column and the column centrifuged as described above, discarding the flow-through. Buffer RW1 (700 μl) is then added to the RNeasy column in a 2 ml microfuge tube to wash the column free of unbound lysate components. […] The RNeasy column is placed into a new 2 ml microfuge tube and 500 μl of RPE buffer is added to wash the column. After centrifugation for 30 seconds at ≥8000×g (≥10,000 rpm) to remove the wash buffer, two identical washes of the column in RPE buffer are performed. This buffer is supplied as a concentrate, and must be diluted with 4 volumes of ethanol (100%) prior to use. Any residual liquid associated with the column is then removed by centrifugation at full speed for 1 minute. […] After leaving the column at room temperature for 1 minute, the column is centrifuged for 1 min at full speed to collect the eluted RNA. To obtain a higher concentration and complete elution of the RNA from column, a second elution step was performed by reapplying the eluate to the column and centrifuging a second time.
This document includes a detailed description on setting up the assay equipment, preparing and running the RNA Nanochips, and analysis of the capillary electrophoretic data using the Agilent […] Bioanalyzer and its associated “Expert software”. It is important that all “Essential Measurement Practices” described in the document are followed. RNA 6000 “Nanochips” and associated solutions are obtained in RNA 6000 Nano kits that can be purchased from Agilent Technologies (Mississauga, ON). RNA Nanochips are manufactured by Caliper Life Sciences (Hopkinton, Mass.). The sizes of the rRNAs, and the concentration of RNA in a given sample are determined by extrapolation from a standard curve of reference RNAs provided in the RNA 6000 NANO kits. All data from the Bioanalyzer runs were stored both as PDF and XAD files. The Agilent 2100 Expert software was used to obtain all data from the capillary electrophoresis runs, including the RNA quality and quantity for a given RNA preparation.

[1] = 40 μM (each drug), same experiment, FIG. 2
[2] = 40 μM (each drug), same experiment, from 9.40±0.12 units, FIG. 2
[3] = A2780 cells, 40 μM, 24 h, FIG. 1

Row | SMILES | concentration at which reductions in RNA integrity are induced (A2780 cells, 24 h) [µM] | reduction in RNA integrity [3] | effect on RNA integrity (in words) (A2780 cells) | also measured
1 | O=c1[nH]cc(F)c(=O)[nH]1 [5-FI-uracil, 5-fluorouracil] | ≥ 20 |  |  | 
2 | N.N.[Cl][Pt][Cl] [cisplatin] |  |  |  | effect on RNA integrity at highest concentration (A2780 cells, 40 μM, 24 h): substantial and statistically significant reductions; change in RNA integrity at low concentrations (A2780 cells, 24 h): no effect
3 | CC(=O)O[C@@]12CO[C@@H]1C[C@H](O)[C@@]1(C)C(=O)[C@H](O)C3=C(C)[C@@H](OC(=O)[C@H](O)[C@@H](NC(=O)OC(C)(C)C)c4ccccc4)C[C@@](O)([C@@H](OC(=O)c4ccccc4)[C@H]21)C3(C)C [docetaxel] |  | 18.8% | minimal reduction | RNA integrity after treatment [1]: 8.67±0.42 units; reduction in RNA integrity [2]: 7.8%; change in RNA integrity at low concentrations (A2780 cells, 24 h): little change
4 | COc1cccc2c1C(=O)c1c(O)c3c(c(O)c1C2=O)C[C@@](O)(C(=O)CO)C[C@@H]3O[C@H]1C[C@H](N)[C@H](O)[C@H](C)O1 [doxorubicin] | 2.5 | up to 20.0% | significant reductions | 
5 | COc1cccc2c1C(=O)c1c(O)c3c(c(O)c1C2=O)C[C@@](O)(C(=O)CO)C[C@@H]3O[C@H]1C[C@H](N)[C@@H](O)[C@H](C)O1 [epirubicin] | 2.5 |  |  | RNA integrity after treatment [1]: 5.87±1.74 units; reduction in RNA integrity [2]: 37.7%; dose-dependent reduction in RNA quality (up to) (A2780 cells, 2.5-40 μM, 24 h, FIG. 1): up to 29.2%
6 | COc1cc([C@@H]2c3cc4c(cc3[C@@H](O[C@@H]3O[C@@H]5CO[C@@H](C)O[C@H]5[C@H](O)[C@H]3O)[C@H]3COC(=O)[C@H]23)OCO4)cc(OC)c1O [etoposide] |  |  | unable to affect RNA integrity | effect on RNA integrity at highest concentration (A2780 cells, 40 μM, 24 h): no effect
7 | CC(=O)O[C@H]1C(=O)[C@@]2(C)[C@H]([C@H](OC(=O)c3ccccc3)[C@]3(O)C[C@H](OC(=O)[C@H](O)[C@@H](NC(=O)c4ccccc4)c4ccccc4)C(C)=C1C3(C)C)[C@]1(OC(C)=O)CO[C@@H]1C[C@@H]2O [paclitaxel] |  | 75.8% | greatest reduction | reduction in RNA integrity (A2780 cells, 20 μM, 24 h, FIG. 1): 52.5%
8 | CC[C@]1(O)C[C@@H]2CN(CCc3c([nH]c4ccccc34)[C@@](C(=O)OC)(c3cc4c(cc3OC)N(C)[C@H]3[C@@](O)(C(=O)OC)[C@H](OC(C)=O)[C@]5(CC)C=CCN6CC[C@]43[C@@H]65)C2)C1 [vinblastine] | 2.5 |  |  | reduction of RNA integrity (A2780 cells, lowest concentration tested 2.5 μM): almost two
